The values that follow are results of earlier work, collected in patent US20060105961A1 (Pharmacia Corporation, priority 2002, published 2006).

This data set deals with tumor. The following applies: mice after radiotherapy.

`COc1ccc2c(c1)c(CC(=O)O)c(C)n2C(=O)c1ccc(Cl)cc1` [indomethacin]: the tumor cure rate result is recorded as “increases the tumor cure rate” and the tumor growth delay result is listed as “prolongs tumor growth delay”.
